{"source": "the supplement of paper PMC10307832", "assay_in_all_cases": "relative viability (nuclei count vs DMSO), 5 days (fraction); higher = more cells survive", "key": {"BEN": {"test_system": "BEN", "outline": "(§1)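 Lung cancer cell lines in 1536-well plates got either a single drug or a fixed anchor-drug dose together with five library-drug doses (not always all listed) in √10 steps, by pin tool, on the day after seeding. Nuclei were counted after 5 days, and relative viability is the treated-to-vehicle ratio of nuclei counts. Values are medians of duplicate plates.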"}, "COR-L23": {"test_system": "COR-L23", "outline": "as §1"}, "HCC-44": {"test_system": "HCC-44", "outline": "as §1"}, "LU99A": {"test_system": "LU99A", "outline": "as §1"}, "LXF-289": {"test_system": "LXF-289", "outline": "as §1"}, "NCI-H1355": {"test_system": "NCI-H1355", "outline": "as §1"}, "NCI-H1437": {"test_system": "NCI-H1437", "outline": "as §1"}, "NCI-H1650": {"test_system": "NCI-H1650", "outline": "as §1"}, "NCI-H1651": {"test_system": "NCI-H1651", "outline": "as §1"}, "NCI-H1666": {"test_system": "NCI-H1666", "outline": "as §1"}, "NCI-H1755": {"test_system": "NCI-H1755", "outline": "as §1"}, "NCI-H1792": {"test_system": "NCI-H1792", "outline": "as §1"}, "NCI-H1993": {"test_system": "NCI-H1993", "outline": "as §1"}, "NCI-H2085": {"test_system": "NCI-H2085", "outline": "as §1"}, "NCI-H2087": {"test_system": "NCI-H2087", "outline": "as §1"}, "NCI-H2170": {"test_system": "NCI-H2170", "outline": "as §1"}, "NCI-H460": {"test_system": "NCI-H460", "outline": "as §1"}, "NCI-H520": {"test_system": "NCI-H520", "outline": "as §1"}, "PC-14": {"test_system": "PC-14", "outline": "as §1"}, "SK-MES-1": {"test_system": "SK-MES-1", "outline": "as §1"}}, "data": [{"smiles": "Cc1csc(=NC2CCCCC2)n1/N=C/c1ccc(O)c(O)c1O", "note": "[MIM1] + Nc1ncn([C@H]2C[C@H](O)[C@@H](CO)O2)c(=O)n1 [Decitabine] (partner 2 µM)", "values": [{"measurement": "relative viability", "setting": "BEN; first compound 0.2 µM", "value": 0.811}, {"measurement": "relative viability", "setting": "BEN; first compound 0.6325 µM", "value": 0.547}, {"measurement": "relative viability", "setting": "BEN; first compound 2 µM", "value": 0.797}, {"measurement": "relative viability", "setting": "BEN; first compound 6.325 µM", "value": 0.739}, {"measurement": "relative viability", "setting": "BEN; first compound 20 µM", "value": 0.317}, {"measurement": "relative viability", "setting": "COR-L23; first compound 0.2 µM", "value": 0.405}, {"measurement": "relative viability", "setting": "COR-L23; first compound 0.6325 µM", "value": 0.475}, {"measurement": "relative viability", "setting": "COR-L23; first compound 2 µM", "value": 0.418}, {"measurement": "relative viability", "setting": "COR-L23; first compound 6.325 µM", "value": 0.346}, {"measurement": "relative viability", "setting": "COR-L23; first compound 20 µM", "value": 0.225}, {"measurement": "relative viability", "setting": "HCC-44; first compound 0.2 µM", "value": 0.905}, {"measurement": "relative viability", "setting": "HCC-44; first compound 0.6325 µM", "value": 0.85}, {"measurement": "relative viability", "setting": "HCC-44; first compound 2 µM", "value": 0.866}, {"measurement": "relative viability", "setting": "HCC-44; first compound 6.325 µM", "value": 0.479}, {"measurement": "relative viability", "setting": "HCC-44; first compound 20 µM", "value": 0.405}, {"measurement": "relative viability", "setting": "LU99A; first compound 0.2 µM", "value": 0.87}, {"measurement": "relative viability", "setting": "LU99A; first compound 0.6325 µM", "value": 0.845}, {"measurement": "relative viability", "setting": "LU99A; first compound 2 µM", "value": 0.927}, {"measurement": "relative viability", "setting": "LU99A; first compound 6.325 µM", "value": 0.889}, {"measurement": "relative viability", "setting": "LU99A; first compound 20 µM", "value": 0.393}, {"measurement": "relative viability", "setting": "LXF-289; first compound 0.2 µM", "value": 0.399}, {"measurement": "relative viability", "setting": "LXF-289; first compound 0.6325 µM", "value": 0.368}, {"measurement": "relative viability", "setting": "LXF-289; first compound 2 µM", "value": 0.394}, {"measurement": "relative viability", "setting": "LXF-289; first compound 6.325 µM", "value": 0.328}, {"measurement": "relative viability", "setting": "LXF-289; first compound 20 µM", "value": 0.253}, {"measurement": "relative viability", "setting": "NCI-H1355; first compound 0.2 µM", "value": 0.361}, {"measurement": "relative viability", "setting": "NCI-H1355; first compound 0.6325 µM", "value": 0.343}, {"measurement": "relative viability", "setting": "NCI-H1355; first compound 2 µM", "value": 0.386}, {"measurement": "relative viability", "setting": "NCI-H1355; first compound 6.325 µM", "value": 0.339}, {"measurement": "relative viability", "setting": "NCI-H1355; first compound 20 µM", "value": 0.332}, {"measurement": "relative viability", "setting": "NCI-H1437; first compound 0.2 µM", "value": 0.592}, {"measurement": "relative viability", "setting": "NCI-H1437; first compound 0.6325 µM", "value": 0.547}, {"measurement": "relative viability", "setting": "NCI-H1437; first compound 2 µM", "value": 0.586}, {"measurement": "relative viability", "setting": "NCI-H1437; first compound 6.325 µM", "value": 0.368}, {"measurement": "relative viability", "setting": "NCI-H1437; first compound 20 µM", "value": 0.303}, {"measurement": "relative viability", "setting": "NCI-H1650; first compound 0.2 µM", "value": 0.428}, {"measurement": "relative viability", "setting": "NCI-H1650; first compound 0.6325 µM", "value": 0.448}, {"measurement": "relative viability", "setting": "NCI-H1650; first compound 2 µM", "value": 0.348}, {"measurement": "relative viability", "setting": "NCI-H1650; first compound 6.325 µM", "value": 0.199}, {"measurement": "relative viability", "setting": "NCI-H1650; first compound 20 µM", "value": 0.135}, {"measurement": "relative viability", "setting": "NCI-H1651; first compound 0.2 µM", "value": 0.608}, {"measurement": "relative viability", "setting": "NCI-H1651; first compound 0.6325 µM", "value": 0.524}, {"measurement": "relative viability", "setting": "NCI-H1651; first compound 2 µM", "value": 0.56}, {"measurement": "relative viability", "setting": "NCI-H1651; first compound 6.325 µM", "value": 0.509}, {"measurement": "relative viability", "setting": "NCI-H1651; first compound 20 µM", "value": 0.306}, {"measurement": "relative viability", "setting": "NCI-H1666; first compound 0.2 µM", "value": 0.714}, {"measurement": "relative viability", "setting": "NCI-H1666; first compound 0.6325 µM", "value": 0.741}, {"measurement": "relative viability", "setting": "NCI-H1666; first compound 2 µM", "value": 0.665}, {"measurement": "relative viability", "setting": "NCI-H1666; first compound 6.325 µM", "value": 0.734}, {"measurement": "relative viability", "setting": "NCI-H1666; first compound 20 µM", "value": 0.467}, {"measurement": "relative viability", "setting": "NCI-H1755; first compound 0.2 µM", "value": 0.724}, {"measurement": "relative viability", "setting": "NCI-H1755; first compound 0.6325 µM", "value": 0.694}, {"measurement": "relative viability", "setting": "NCI-H1755; first compound 2 µM", "value": 0.727}, {"measurement": "relative viability", "setting": "NCI-H1755; first compound 6.325 µM", "value": 0.657}, {"measurement": "relative viability", "setting": "NCI-H1755; first compound 20 µM", "value": 0.549}, {"measurement": "relative viability", "setting": "NCI-H1792; first compound 0.2 µM", "value": 0.574}, {"measurement": "relative viability", "setting": "NCI-H1792; first compound 0.6325 µM", "value": 0.497}, {"measurement": "relative viability", "setting": "NCI-H1792; first compound 2 µM", "value": 0.611}, {"measurement": "relative viability", "setting": "NCI-H1792; first compound 6.325 µM", "value": 0.439}, {"measurement": "relative viability", "setting": "NCI-H1792; first compound 20 µM", "value": 0.411}, {"measurement": "relative viability", "setting": "NCI-H1993; first compound 0.2 µM", "value": 0.534}, {"measurement": "relative viability", "setting": "NCI-H1993; first compound 0.6325 µM", "value": 0.531}, {"measurement": "relative viability", "setting": "NCI-H1993; first compound 2 µM", "value": 0.517}, {"measurement": "relative viability", "setting": "NCI-H1993; first compound 6.325 µM", "value": 0.483}, {"measurement": "relative viability", "setting": "NCI-H1993; first compound 20 µM", "value": 0.3}, {"measurement": "relative viability", "setting": "NCI-H2085; first compound 0.2 µM", "value": 0.539}, {"measurement": "relative viability", "setting": "NCI-H2085; first compound 0.6325 µM", "value": 0.522}, {"measurement": "relative viability", "setting": "NCI-H2085; first compound 2 µM", "value": 0.516}, {"measurement": "relative viability", "setting": "NCI-H2085; first compound 6.325 µM", "value": 0.491}, {"measurement": "relative viability", "setting": "NCI-H2085; first compound 20 µM", "value": 0.563}, {"measurement": "relative viability", "setting": "NCI-H2087; first compound 0.2 µM", "value": 0.286}, {"measurement": "relative viability", "setting": "NCI-H2087; first compound 0.6325 µM", "value": 0.273}, {"measurement": "relative viability", "setting": "NCI-H2087; first compound 2 µM", "value": 0.231}, {"measurement": "relative viability", "setting": "NCI-H2087; first compound 6.325 µM", "value": 0.327}, {"measurement": "relative viability", "setting": "NCI-H2087; first compound 20 µM", "value": 0.246}, {"measurement": "relative viability", "setting": "NCI-H2170; first compound 0.2 µM", "value": 0.448}, {"measurement": "relative viability", "setting": "NCI-H2170; first compound 0.6325 µM", "value": 0.455}, {"measurement": "relative viability", "setting": "NCI-H2170; first compound 2 µM", "value": 0.494}, {"measurement": "relative viability", "setting": "NCI-H2170; first compound 6.325 µM", "value": 0.401}, {"measurement": "relative viability", "setting": "NCI-H2170; first compound 20 µM", "value": 0.27}, {"measurement": "relative viability", "setting": "NCI-H460; first compound 0.2 µM", "value": 0.438}, {"measurement": "relative viability", "setting": "NCI-H460; first compound 0.6325 µM", "value": 0.479}, {"measurement": "relative viability", "setting": "NCI-H460; first compound 2 µM", "value": 0.43}, {"measurement": "relative viability", "setting": "NCI-H460; first compound 6.325 µM", "value": 0.182}, {"measurement": "relative viability", "setting": "NCI-H460; first compound 20 µM", "value": 0.0456}, {"measurement": "relative viability", "setting": "NCI-H520; first compound 0.2 µM", "value": 0.574}, {"measurement": "relative viability", "setting": "NCI-H520; first compound 0.6325 µM", "value": 0.485}, {"measurement": "relative viability", "setting": "NCI-H520; first compound 2 µM", "value": 0.526}, {"measurement": "relative viability", "setting": "NCI-H520; first compound 6.325 µM", "value": 0.43}, {"measurement": "relative viability", "setting": "NCI-H520; first compound 20 µM", "value": 0.284}, {"measurement": "relative viability", "setting": "PC-14; first compound 0.2 µM", "value": 0.17}, {"measurement": "relative viability", "setting": "PC-14; first compound 0.6325 µM", "value": 0.197}, {"measurement": "relative viability", "setting": "PC-14; first compound 2 µM", "value": 0.201}, {"measurement": "relative viability", "setting": "PC-14; first compound 6.325 µM", "value": 0.137}, {"measurement": "relative viability", "setting": "PC-14; first compound 20 µM", "value": 0.0966}, {"measurement": "relative viability", "setting": "SK-MES-1; first compound 0.2 µM", "value": 0.454}, {"measurement": "relative viability", "setting": "SK-MES-1; first compound 0.6325 µM", "value": 0.424}, {"measurement": "relative viability", "setting": "SK-MES-1; first compound 2 µM", "value": 0.376}, {"measurement": "relative viability", "setting": "SK-MES-1; first compound 6.325 µM", "value": 0.272}, {"measurement": "relative viability", "setting": "SK-MES-1; first compound 20 µM", "value": 0.21}]}]}
